Key:
[1] = biological target: Aplysia californica AChBP (Aplysia californica, UniProt Q8WSF8); experiment: biochemical; format: binding
[2] = tested on: rat α9α10 nAChR; details: cited from earlier work

Sequence of Aplysia californica AChBP (Q8WSF8 18-236 limits assumed): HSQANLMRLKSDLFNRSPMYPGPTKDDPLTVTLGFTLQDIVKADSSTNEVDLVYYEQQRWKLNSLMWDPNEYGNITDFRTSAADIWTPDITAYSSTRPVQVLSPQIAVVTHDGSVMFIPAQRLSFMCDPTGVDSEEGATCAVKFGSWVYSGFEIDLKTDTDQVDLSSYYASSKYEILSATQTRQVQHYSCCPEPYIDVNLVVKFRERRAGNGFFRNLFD

| Compound | IC50 [1] [nM] | affinity for rat α9α10 nAChRs [2] |
| --- | --- | --- |
| N=C(N)NCCC[C@H](NC(=O)[C@@H]1CSSC[C@@H]2NC(=O)[C@@H](NC(=O)CN)CSSC[C@H](NC(=O)[C@H](CCCNC(=N)N)NC(=O)[C@@H]3CCCN3C(=O)[C@H](CC(=O)O)NC(=O)[C@H](CO)NC2=O)C(=O)N[C@@H](CCCNC(=N)N)C(=O)N[C@@H](Cc2ccc(O)cc2)C(=O)N[C@@H](CCCNC(=N)N)C(=O)N1)C(=O)O [RgIA globular isomer] | 194 ± 14 | – |
| N=C(N)NCCC[C@H](NC(=O)[C@@H]1CSSC[C@H](NC(=O)CN)C(=O)N[C@H]2CSSC[C@H](NC(=O)[C@H](CCCNC(=N)N)NC(=O)[C@@H]3CCCN3C(=O)[C@H](CC(=O)O)NC(=O)[C@H](CO)NC2=O)C(=O)N[C@@H](CCCNC(=N)N)C(=O)N[C@@H](Cc2ccc(O)cc2)C(=O)N[C@@H](CCCNC(=N)N)C(=O)N1)C(=O)O [RgIA ribbon isomer] | 1000 ± 80 | – |
| Vc1.1 | – | nanomolar |
